Assays:
[1] = system: AMPK; conditions: known as; cited from earlier work
[2] = system: ACC (acetyl-CoA carboxylase); experiment: ACC phosphorylation (pACC/tACC) by western blotting in C2C12 myotubes; assay type: cell-based, mouse; conditions: single use or combination in a specific mass ratio
Experimental: The resultant was used in the following experiment. Since trifolin and astragalin have the same molecular weights, their concentration ratios are the same as the mass ratios. A medium without any addition was used as a negative control, and a medium containing AICAR (final concentration: 2 mM) was used as a positive control. AICAR is a substance that is metabolized to an analog of AMP when taken in a cell.
A mouse skeletal myotube cell line (C2C12) was inoculated in a 6-well cell culture plate. The cell line was cultured in a DMEM medium containing 10% fetal bovine serum and a 1% antibacterial agent at 37° C. in the presence of 5% carbon dioxide for 3 days. […] The protein concentration of each supernatant was measured. […]
After SDS-PAGE, the protein was transferred to a PVDF membrane, and blocking was performed. […] After sufficient washing, chemiluminescence (band) on the membrane was detected using a CCD camera imager (produced by GE Healthcare) (FIG. 1). The band intensity was quantified using image J (NIH). The degree of the activity (i.e., “phosphorylated AMPK/total AMPK (pAMPK/tAMPK)” or “phosphorylated ACC/total ACC (pACC/tACC)”) was expressed as a relative value with the value of the negative control being defined as 1 (FIG. 2a and FIG. 2b).

Row | SMILES | AMPK activation in skeletal muscle [1] | ACC phosphorylation promotion (ACC inactivation promotion) effects [2]
1 | NC(=O)c1ncn([C@@H]2O[C@H](CO)[C@@H](O)[C@H]2O)c1N [AICAR] | significantly activating AMPK | –
2 | O=c1c(O[C@@H]2O[C@H](CO)[C@H](O)[C@H](O)[C@H]2O)c(-c2ccc(O)cc2)oc2cc(O)cc(O)c12 [trifolin, kaempferol-3-O-galactoside] | – | almost no effects
